From the supplement of paper PMC10307832

Columns and labels:
Experiment in all cases: relative viability (nuclei count vs DMSO), 5 days (fraction); higher = more cells survive
[1] = compound: CC1=NN=C(O1)C2=NN=C(C=C2)N3CCC(CC3)OC4=C(C=CC(=C4)F)Cl + CCNC(=O)c1noc(-c2cc(C(C)C)c(O)cc2O)c1-c1ccc(CN2CCOCC2)cc1 [Luminespib] (partner 0.01 µM)
Outline: (§1)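 Five library-drug doses in √10 steps were combined with a fixed anchor-drug dose, or a single drug was given alone, by pin tool to lung cancer cell lines in 1536-well plates the day after seeding. Nuclei were stained and counted after 5 days. Relative viability is the nuclei count in treated wells over that in vehicle wells, taken as the median of duplicate plates.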

Tosedostat + Crizotinib = compound: CC(C)C[C@@H](C(=O)N[C@H](C(=O)OC1CCCC1)c1ccccc1)[C@H](O)C(=O)NO [Tosedostat] + C[C@@H](Oc1cc(-c2cnn(C3CCNCC3)c2)cnc1N)c1c(Cl)ccc(F)c1Cl [Crizotinib] (partner 1 µM)
Outline: as §1

[2] = compound: CC1=NN=C(O1)C2=NN=C(C=C2)N3CCC(CC3)OC4=C(C=CC(=C4)F)Cl + Cc1nc(Nc2ncc(C(=O)Nc3c(C)cccc3Cl)s2)cc(N2CCN(CCO)CC2)n1 [Dasatinib] (partner 0.075 µM)
Outline: as §1

[3] = compound: CC1=NN=C(O1)C2=NN=C(C=C2)N3CCC(CC3)OC4=C(C=CC(=C4)F)Cl + CC1(C)CCC(c2ccc(Cl)cc2)=C(CN2CCN(c3ccc(C(=O)NS(=O)(=O)c4ccc(N[C@H](CCN5CCOCC5)CSc5ccccc5)c(S(=O)(=O)C(F)(F)F)c4)cc3)CC2)C1 [Navitoclax] (partner 0.5 µM)
Outline: as §1

| Cell Line | relative viability ([1]; first compound 0.253 µM) | relative viability ([1]; first compound 0.8 µM) | relative viability ([1]; first compound 2.53 µM) | relative viability ([1]; first compound 8 µM) | relative viability (Tosedostat + Crizotinib; first compound 0.02 µM) | relative viability (Tosedostat + Crizotinib; first compound 0.06325 µM) | relative viability (Tosedostat + Crizotinib; first compound 0.2 µM) | relative viability (Tosedostat + Crizotinib; first compound 0.6325 µM) | relative viability (Tosedostat + Crizotinib; first compound 2 µM) | relative viability ([2]; first compound 0.253 µM) | relative viability ([2]; first compound 0.8 µM) | relative viability ([2]; first compound 2.53 µM) | relative viability ([2]; first compound 8 µM) | relative viability ([3]; first compound 0.253 µM) | relative viability ([3]; first compound 0.8 µM) | relative viability ([3]; first compound 2.53 µM) | relative viability ([3]; first compound 8 µM) |
| --- | --- | --- | --- | --- | --- | --- | --- | --- | --- | --- | --- | --- | --- | --- | --- | --- | --- |
| NCI-H460 | 0.0224 | 0.0328 | 0.0243 | 0.0233 | 0.956 | 0.787 | 0.905 | 0.708 | 0.932 | 0.175 | 0.185 | 0.214 | 0.193 | 0.429 | 0.42 | 0.45 | 0.392 |
| NCI-H520 | 0.207 | 0.217 | 0.199 | 0.2 | 0.692 | 0.754 | 0.787 | 0.833 | 0.846 | 0.258 |  | 0.211 | 0.222 | 0.926 | 0.566 | 1.05 | 1.09 |
| NCI-H596 | 0.938 | 0.849 | 0.945 | 0.889 | 0.968 | 1.07 | 1.13 | 1.15 | 0.825 | 0.558 | 0.602 | 0.647 | 0.506 |  | 0.756 | 0.894 | 0.723 |
| NCI-H647 | 0.171 | 0.128 | 0.16 | 0.263 | 1.25 | 1.04 | 0.831 | 0.957 | 0.869 | 0.196 | 0.222 | 0.207 | 0.178 | 0.744 | 0.704 | 0.821 | 0.679 |
| NCI-H727 | 0.531 |  | 0.6 | 0.629 | 0.983 | 0.784 | 0.658 | 0.557 | 0.513 | 0.328 |  | 0.441 | 0.384 | 0.479 | 0.36 | 0.368 | 0.262 |
| NCI-H838 | 0.257 | 0.255 | 0.348 | 0.226 | 0.969 | 0.92 | 0.826 | 0.818 | 0.948 | 0.299 | 0.32 | 0.301 | 0.331 | 0.959 | 0.954 | 1.05 | 0.979 |
| NCI-H1355 | 0.538 | 0.582 | 0.601 | 0.623 | 0.997 | 1.09 | 1.06 | 0.976 | 0.813 | 0.314 | 0.526 | 0.781 | 0.585 |  |  | 0.947 | 0.763 |
| NCI-H1437 | 0.654 | 0.6 | 0.598 | 0.546 | 0.941 | 0.988 | 1.03 | 0.914 | 0.895 | 0.584 | 0.279 | 0.418 | 0.268 | 0.571 | 0.66 | 0.564 | 0.46 |
| NCI-H1650 |  | 0.194 | 0.217 | 0.205 | 0.988 | 0.937 | 1.07 | 0.86 | 1.01 |  | 0.342 | 0.335 | 0.28 |  | 0.895 | 0.816 | 0.868 |
| NCI-H1651 | 0.738 | 0.749 | 0.685 | 0.692 | 0.918 | 0.851 | 0.878 | 0.897 | 0.817 | 0.406 | 0.394 | 0.335 | 0.374 | 0.809 | 0.783 | 0.782 | 0.717 |
| NCI-H1666 | 0.537 | 0.504 | 0.479 | 0.444 | 0.972 | 1.01 | 1.01 | 0.937 | 1.11 | 0.612 | 0.526 | 0.58 | 0.543 | 0.706 | 0.667 | 0.723 | 0.698 |
| NCI-H1734 | 0.237 | 0.206 | 0.249 | 0.189 | 0.727 | 0.695 | 0.688 | 0.574 | 0.656 | 0.496 | 0.417 | 0.477 | 0.401 | 0.826 | 0.682 | 0.843 | 0.754 |
| NCI-H1755 | 0.376 | 0.337 | 0.354 | 0.418 | 0.933 | 0.846 | 0.876 | 0.856 | 0.771 | 0.36 | 0.438 | 0.406 | 0.373 | 0.615 | 0.682 | 0.676 | 0.655 |
| NCI-H1792 | 0.34 | 0.38 | 0.419 | 0.431 | 1 | 0.991 | 1.04 | 0.963 | 1.03 | 0.578 | 0.714 | 0.78 | 0.707 | 0.4 | 0.409 | 0.409 | 0.482 |
| NCI-H1915 | 0.615 | 0.393 | 0.503 | 0.312 | 0.922 | 0.894 | 0.901 | 0.905 | 0.79 | 0.324 | 0.257 | 0.311 | 0.285 | 0.372 | 0.281 | 0.348 | 0.277 |
| NCI-H1944 | 0.45 | 0.417 | 0.483 | 0.402 | 1.11 | 1.01 | 1.04 | 1.08 | 0.942 | 0.212 | 0.23 | 0.224 | 0.264 | 0.637 | 0.665 | 0.733 | 0.672 |
| NCI-H1975 |  |  | 0.224 | 0.196 | 0.939 | 1.01 | 1.1 | 0.773 | 0.802 |  | 0.361 | 0.581 | 0.546 |  | 0.82 | 0.838 | 0.882 |
